Measured values published in patent publication US7815942B2, “Rasagiline formulations of improved content uniformity” (Teva Pharmaceutical Industries, Ltd., priority 2005, dated 2010).
Like-named read-outs stand apart in the source and are kept apart here.

Legend:
[1] = Particle size distribution by Malvern laser diffraction (Mastersizer S); type: physicochemical; conditions: average of two measurements
Experimental: Many analytical tools are available to determine PSD. In the early development stage, the analysis of PSD was performed through microscopic and sieve analysis. Laser diffraction was chosen as the final analytical method for measuring the PSD. Because the large particles were of major concern, the important characteristics of the PSD were the d(0.9), which is the size, in microns, below which 90% of the particles by volume are found, and the d(0.1), which is the size, in microns, below which 10% of the particles by volume are found.
R(+)PAI mesylate samples before milling contain large, irregular, plate-shaped particles of various sizes (See FIG. 1). PSDs of four different batches were measured before milling and after milling. The PSDs were measured using Malvern Laser Diffraction, using the Mastersizer S model. Laser diffraction relies on the fact that diffraction angle of light is inversely proportional to particle size. Properties of particles are measured and interpreted as measurements of a sphere (a sphere being the only shape that can be described by one unique number). In addition, laser diffraction calculates a particle size distribution based around volume terms, thus eliminating particle count from the determination of particle size. The Masterizer S model measures particles using a single technique and a single range setting.
The values in the table represent averages of two measurements. Each measurement was taken after 3 minutes of recirculation with the speed control at the 14 hour position. The dilution medium was a 1% solution of dioctyl sulfosuccinate sodium salt in n-hexane. The concentration of drug substance used in the measurements was between 0.05% and 0.35% by volume. The results were confirmed with microscopic observation. For optical microscopy, an emulsion or suspension, diluted or undiluted, was mounted on a slide or ruled cell. The microscope eyepiece was fitted with a micrometer by which the size of the particles may be estimated.
D(0.1) is the particle size, in microns, below which 10% by volume distribution of the population is found, and d(0.9) is the particle size, in microns, below which 90% by volume distribution of the population is found. […]

[2] = 18-year study, subjects, cited from earlier work
[3] = compared with the microcrystalline form; cited from earlier work

C#CCN[C@@H]1CCc2ccccc21.CS(=O)(=O)O [Batch D197/197]
d (0.1) after milling ([1]; listed as D197/197): 14 microns
d (0.9) after milling ([1]; listed as D197/197): 168 microns
d (0.1) before milling ([1]; listed as D197/197): 21 microns
d (0.9) before milling ([1]; listed as D197/197): 443 microns

C#CCN[C@@H]1CCc2ccccc21.CS(=O)(=O)O [Batch D297/297]
d (0.1) after milling ([1]; listed as D297/297): 11 microns
d (0.9) after milling ([1]; listed as D297/297): 160 microns
d (0.1) before milling ([1]; listed as D297/297): 20 microns
d (0.9) before milling ([1]; listed as D297/297): 386 microns

O=C1CN(/N=C/c2ccc([N+](=O)[O-])o2)C(=O)N1 [microcrystalline form, Nitrofurantoin]
negative side effects (adverse events) such as nausea and gastro-intestinal problems [2]: produces negative side effects

C#CCN[C@@H]1CCc2ccccc21.CS(=O)(=O)O [Batch D222/223]
d (0.1) after milling ([1]; listed as D222/223): 10 microns
d (0.9) after milling ([1]; listed as D222/223): 156 microns
d (0.1) before milling ([1]; listed as D222/223): 18 microns
d (0.9) before milling ([1]; listed as D222/223): 573 microns

O=C1CN(/N=C/c2ccc([N+](=O)[O-])o2)C(=O)N1 [macrocrystalline form of Nitrofurantoin, Nitrofurantoin]
negative side effects (adverse events) such as nausea and gastro-intestinal problems ([2]; listed as macrocrystalline form): did not manifest
dissolution and absorption rates [3]: slower
serum concentrations [3]: lower
time to achieve peak concentration in urine [3]: takes longer

C#CCN[C@@H]1CCc2ccccc21.CS(=O)(=O)O [Batch D211/212]
d (0.1) after milling ([1]; listed as D211/212): 16 microns
d (0.9) after milling ([1]; listed as D211/212): 189 microns
d (0.1) before milling ([1]; listed as D211/212): 104 microns
d (0.9) before milling ([1]; listed as D211/212): 598 microns
